Laboratory results: patent publication US9493502B2, “Ribofuranosyl purine compounds, methods for preparing the same and use thereof” (Beijing KBD Pharmaceuticals Co., Ltd., priority 2011, dated 2016)

Experiments:
[1] = system: ADP-induced platelet aggregation; experiment: in vitro anti-platelet aggregation induced by ADP (platelet-rich plasma, aggregometer); assay type: cell-based; conditions: Homo sapiens; platelet-rich plasma of healthy volunteers, inductive agent ADP (10 uM), 37° C.
Text: (§1) The inventor conducted the anti-platelet aggregation activity screening for the compounds of the present invention, carried out the anti-platelet aggregation test by using the blood platelet which was closed to human physiological state and was not washed with water, and conducted the activity test of the in vitro anti-platelet aggregation induced by ADP, and also the activity test of the in vitro anti-platelet aggregation induced by AA (arachidonic acid) for some compounds. The present invention firstly discloses the activity test of the in vitro anti-platelet aggregation induced by AA conducted with said type of compounds.
(§2) The anti-platelet aggregation test of the compounds was conducted by the aggregometer (Model 400VS, Chrono-Log, Haverston, Pa.) from Chrono-Log Corp. ADP, AA (arachidonic acid), DMSO and trisodium citrate were purchased from Sigama.
(§3) The fasting venous blood of the subjects was collected, and placed into a 50 mL sampling tube containing 3.8% sodium citrate, and mixed homogeneously in a ratio of 1:9 (v/v) for anticoagulation, and centrifugalized at 300 rpm/min for 20 min.
(§4) The supernatant was taken to obtain platelet-rich blood plasma (PRP). The residual blood was then centrifugalized at 900 rpm/min for 10 min, and the supernatant fluid was taken to obtain platelet-poverty blood plasma (PPP). The analysis of platelet aggregation was conducted by using the aggregometer (Chrono-Log Corp.), wherein PRP and PPP were respectively added to two turbidimetric tubes. In the aggregometer, platelet-poverty blood plasma (PPP) was used as the control group. DMSO was used as the negative control. The turbidimetric tubes were incubated at 37° C. for 3 min. The PRP was stirred with a stirring rod at 900 rpm/min for 10-20 s, and the inductive agent ADP (10 uM) or AA (0.5 mM) was added to PRP, and start to record the aggregated wave patterns. The chart speed of the recorder (Model 707, Chrono-Log, Haverston, Pa., USA) was set up to be 1 cm min^−1, and the aggregation reaction was recorded for not less than 3 min. Finally, the apparatus automatically delineated the aggregation curve and calculated the results, i.e. maximum platelet aggregation rate. When the platelet aggregation was lower than 50% of the control group, the IC50 of the compound was calculated.

[2] = system: AA (arachidonic acid)-induced platelet aggregation; experiment: in vitro anti-platelet aggregation induced by AA (arachidonic acid) (platelet-rich plasma, aggregometer); assay type: cell-based; conditions: Homo sapiens; platelet-rich plasma of healthy volunteers, inductive agent AA (0.5 mM), 37° C.
Text: as §1, §2, §3, §4

Which IC50 [1] does the source give for `CCCCCCNc1nc(SCCC)nc2c1ncn2[C@@H]1O[C@H](CO)[C@@H](O)[C@H]1O` [Example 8, 2-propylthio-6-n-hexylamino-9-β-D-ribofuranosyl purine] here?
Its IC50 is 102 µM.

With `CCSc1nc(NC2CCCCC2)c2ncn([C@@H]3O[C@H](CO)[C@@H](O)[C@H]3O)c2n1` [Example 9, 2-ethylthio-6-cyclohexylamino-9-β-D-ribofuranosyl purine] as the compound, how does the IC50 [1] read?
The IC50 was 104 µM.

Which IC50 [1] does the source give for `CCCSc1nc(NC2CCCCC2)c2ncn([C@@H]3O[C@H](CO)[C@@H](O)[C@H]3O)c2n1` [Example 10, 2-propylthio-6-cyclohexylamino-9-β-D-ribofuranosyl purine] here?
Its IC50 is 151 µM.

Which IC50 [1] does the source give for `CC(C)Sc1nc(NC2CCCCC2)c2ncn([C@@H]3O[C@H](CO)[C@@H](O)[C@H]3O)c2n1` [Example 11, 2-isopropylthio-6-cyclohexylamino-9-β-D-ribofuranosyl purine] here?
The IC50 was 187 µM.

Which IC50 [1] does the source give for `CCCCSc1nc(NC2CCCCC2)c2ncn([C@@H]3O[C@H](CO)[C@@H](O)[C@H]3O)c2n1` [Example 12, 2-butylthio-6-cyclohexylamino-9-β-D-ribofuranosyl purine] here?
The IC50 was 83 µM.

Which IC50 [1] does the source give for `CCSc1nc(NCc2ccccc2)c2ncn([C@@H]3O[C@H](CO)[C@@H](O)[C@H]3O)c2n1` [Example 13, 2-ethylthio-6-benzylamino-9-β-D-ribofuranosyl purine] here?
Its IC50 is 176 µM.

Which IC50 [1] does the source give for `CCCSc1nc(NCc2ccccc2)c2ncn([C@@H]3O[C@H](CO)[C@@H](O)[C@H]3O)c2n1` [Example 14, 2-propylthio-6-benzylamino-9-β-D-ribofuranosyl purine] here?
The IC50 was 216 µM.

`CCCCSc1nc(NCc2ccccc2)c2ncn([C@@H]3O[C@H](CO)[C@@H](O)[C@H]3O)c2n1` [Example 15, 2-butylthio-6-benzylamino-9-β-D-ribofuranosyl purine] was tested. Which IC50 [1] did it give?
Its IC50 is 202 µM.

For `CCSc1nc(NC(C)c2ccccc2)c2ncn([C@@H]3O[C@H](CO)[C@@H](O)[C@H]3O)c2n1` (stereo partly drawn) [Example 16, 2-ethylthio-6-(1-phenylethyl)amino-9-β-D-ribofuranosyl purine], which IC50 [1] is on record?
The IC50 was 197 µM.

How did the IC50 [1] turn out when `CCCSc1nc(NCc2ccc(OC)cc2)c2ncn([C@@H]3O[C@H](CO)[C@@H](O)[C@H]3O)c2n1` [Example 17, 2-propylthio-6-([4-methoxylbenzyl]amino)-9-β-D-ribofuranosyl purine] was run?
The IC50 was 181 µM.

What does the source list for `CSc1nc(NCCc2ccccc2)c2ncn([C@@H]3O[C@H](CO)[C@@H](O)[C@H]3O)c2n1` [Example 18, 2-methylthio-6-phenylethylamino-9-β-D-ribofuranosyl purine]?
IC50 [1]: 36 µM; IC50 [2]: 3 µM

What does the source list for `CCSc1nc(NCCc2ccccc2)c2ncn([C@@H]3O[C@H](CO)[C@@H](O)[C@H]3O)c2n1` [Example 19, 2-ethylthio-6-phenylethylamino-9-β-D-ribofuranosyl purine]?
IC50 [1]: 29 µM; IC50 [2]: 30 µM

For `CCCSc1nc(NCCc2ccccc2)c2ncn([C@@H]3O[C@H](CO)[C@@H](O)[C@H]3O)c2n1` [Example 20, 2-propylthio-6-phenylethylamino-9-β-D-ribofuranosyl purine], which IC50 [1] is on record?
Its IC50 is 52 µM.

What about the IC50 [2] of the same compound?
Its IC50 is 44 µM.

What does the source list for `CCCCSc1nc(NCCc2ccccc2)c2ncn([C@@H]3O[C@H](CO)[C@@H](O)[C@H]3O)c2n1` [Example 21, 2-butylthio-6-phenylethylamino-9-β-D-ribofuranosyl purine]?
IC50 [1]: 59 µM; IC50 [2]: > 300 µM

With `COc1ccc(CCNc2nc(SC)nc3c2ncn3[C@@H]2O[C@H](CO)[C@@H](O)[C@H]2O)cc1` [Example 22, 2-methylthio-6-([4-methoxylphenylethyl]-amino)-9-β-D-ribofuranosyl purine] as the compound, how does the IC50 [1] read?
Its IC50 is 153 µM.

`CCSc1nc(NCCc2ccc(OC)cc2)c2ncn([C@@H]3O[C@H](CO)[C@@H](O)[C@H]3O)c2n1` [Example 23, 2-ethylthio-6-([4-methoxylphenylethyl]amino)-9-β-D-ribofuranosyl purine] was tested. Which IC50 [1] did it give?
The IC50 was 89 µM.

Which IC50 [1] does the source give for `CCCSc1nc(NCCc2ccc(OC)cc2)c2ncn([C@@H]3O[C@H](CO)[C@@H](O)[C@H]3O)c2n1` [Example 24, 2-propylthio-6-([4-methoxylphenylethyl]amino)-9-β-D-ribofuranosyl purine] here?
Its IC50 is 267 µM.

`CCCCSc1nc(NCCc2ccc(OC)cc2)c2ncn([C@@H]3O[C@H](CO)[C@@H](O)[C@H]3O)c2n1` [Example 25, 2-butylthio-6-([4-methoxylphenylethyl]amino)-9-β-D-ribofuranosyl purine] was tested. Which IC50 [1] did it give?
Its IC50 is 93 µM.

For `CCSc1nc(NCCc2cccc(OC)c2)c2ncn([C@@H]3O[C@H](CO)[C@@H](O)[C@H]3O)c2n1` [Example 26, 2-ethylthio-6-([3-methoxylphenylethyl]amino)-9-β-D-ribofuranosyl purine], which IC50 [1] is on record?
Its IC50 is 38 µM.

What about the IC50 [2] of the same compound?
Its IC50 is greater than 300 µM.

With `CCCSc1nc(NCCc2cccc(OC)c2)c2ncn([C@@H]3O[C@H](CO)[C@@H](O)[C@H]3O)c2n1` [Example 27, 2-propylthio-6-([3-methoxylphenylethyl]amino)-9-β-D-ribofuranosyl purine] as the compound, how does the IC50 [1] read?
The IC50 was 69 µM.
